In patent publication US5141959A, “Isoprenoid phospholipase A2 inhibitors and preparations comprising same” (Bristol-Myers Squibb Company, priority 1990, dated 1992):
pIC50: −log10 of the molar value.

Columns and labels:
human platelet PLA2 = molecular target: T1, human platelet PLA2 (Homo sapiens, UniProt P14555); test: PLA2 Inhibition Assay (14C-oleate labeled E. coli membrane substrate); format: biochemical; settings: preincubation 7 min, incubation 30 min, 37° C., pH 7; unit inferred; read-out: IC50 for inhibition of human platelet phospholipase A2
T1 construct: The enzyme was isolated from human platelets; from tissue; host or cells: human platelets
T1 sequence (P14555 21-144): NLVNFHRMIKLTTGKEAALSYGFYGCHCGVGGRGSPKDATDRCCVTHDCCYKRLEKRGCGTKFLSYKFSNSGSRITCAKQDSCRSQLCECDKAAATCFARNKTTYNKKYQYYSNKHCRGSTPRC
Description: This assay is used to measure the inhibition of human platelet PLA2 by test compounds. The method used was similar to that reported by Franson et al. [Jesse RL and Franson RC, Biochem Biophys Acta, 575, 467-470 (1979)]. [Franson RC, Patriarca P and Elsback P, J Lipid Res 15, 380-388 (1974)]. The enzyme was isolated from human platelets. The substrate used consisted of ^14 C-oleate labeled E. coli membranes. E. Coli cells were grown in the presence of ^14 C-oleic acid and then autoclaved to prepare membranes. In the assay, various concentrations of test compounds are preincubated with PLA2 (7.5 μg/ml) in a buffer consisting of 25 mM HEPES (pH 7) 150 mM NaCl, 5.0 mM Cacl2, and 10% DMSO (test compound solvent) at 37° C. for 7 minutes. The E. coli membrane substrate is then added (0.1 mM phospholipid, 0.5 μCi/umol) and the reaction is incubated at 37° C. for 30 minutes. The final reaction volume is 0.1 ml. The reaction is quenched with tetrahydrofuran (1.9 ml), and the entire solution is applied to a solid-phase extraction column (aminopropylresin, Analytichem). […] The amount of free fatty acid product is determined by liquid scintillation counting. The amount of inhibition produced by the test compound is calculated by comparing the number of counts obtained in the presence of the compound to that obtained for the control reactions (test compound solvent only). […]

[1] = tested on: TPA-induced mouse ear edema; test: Phorbol ester (TPA)-induced mouse ear inflammation assay: edema (ear weight); format: in vivo, CD-1 mice; settings: topical, six hours
Description: (§1) Anti-inflammatory activity of the test compounds was determined in the phorbol ester-induced mouse ear inflammation model. [Young J M, Wagner B M and Spires D A, J Invest Dermatol, 80, 48-52 (1983)]. In this assay, an inflammatory reaction is induced by the topical application of 0.01% (w/v) tetradecanoylphorbol-13-acetate (TPA) to the ears of CD-1 mice. An acute inflammatory reaction results in which the ears swell and inflammatory cells infiltrate the ear tissue. TPA, with and without various concentrations of test compound, was applied to the inner and outer aspects of the ears (10 μl/surface). After six hours, the mice were sacrificed and the ears were removed. Ear tissue punches (5/16") were taken from each ear and weighed to measure edema. The ear punches were then processed for the determination of neutrophil accumulation by measurement of myeloperoxidase (MPO) activity by the method of Bradley et al. [Bradley P P et al, J Invest Dermatol, 78, 206-209 (1982)]. MPO is a specific marker for the presence of neutrophils in tissue.
(§2) The anti-inflammatory activity produced by the test compound is calculated by comparing the edema or MPO values obtained for the drug-treated ears to those obtained for non-drug treated ears. Percent inhibition values were determined by the equation: [formula] […] The ED50 is estimated to be 0.8%.

[2] = tested on: myeloperoxidase (MPO) activity; test: Phorbol ester (TPA)-induced mouse ear inflammation assay: cell infiltration (neutrophil accumulation by myeloperoxidase activity); format: in vivo, CD-1 mice; settings: topical, six hours
Description: as §1, §2

Row | SMILES | pIC50 (human platelet PLA2) | Blocking of TPA-induced mouse ear edema (in words) [1] | ED50, TPA-induced mouse ear edema ([1]; with TPA 0.01% (w/v)) | Blocking of edema and cell infiltration (in words) ([2]; statement covers edema and cell infiltration) | ED50, inhibition of cell infiltration ([2]; with TPA 0.01% (w/v), MPO activity)
1 | CC1=C(/C=C/C(C)=C/C=C(/C(C)=C\C(=O)O)c2cccc(C(=O)O)c2)C(C)(C)CCC1 [Compound I, 13-CIS-12-(3'-CARBOXYPHENYL)RETINOIC ACID] | 4.40 | dose-dependently blocks TPA-induced mouse ear edema | ~0.8% | effectively blocks edema and cell infiltration | < 0.1%
2 | CC1=C(/C=C/C(C)=C/C=C/C(C)=C/C(=O)O)C(C)(C)CCC1 [reference compound] | < 3.30 | – | – | – | –
